Experiment [1] deals with T1, human steroid 5-α-reductase (Homo sapiens, UniProt P31213).
T1 construct: Frozen human prostates were thawed and minced into small pieces; from tissue; host or cells: hyperplastic human prostate, 140,000×g particulate fraction
T1 sequence (P31213 1-254): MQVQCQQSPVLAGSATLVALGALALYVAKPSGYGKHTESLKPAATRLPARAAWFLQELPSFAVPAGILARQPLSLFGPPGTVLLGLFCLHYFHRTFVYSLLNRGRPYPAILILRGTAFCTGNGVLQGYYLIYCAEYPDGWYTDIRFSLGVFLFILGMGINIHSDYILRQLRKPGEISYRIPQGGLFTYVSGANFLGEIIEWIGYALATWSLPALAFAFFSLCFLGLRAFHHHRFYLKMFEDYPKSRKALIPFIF
The experiment in a line: Potency in inhibiting human steroid 5-α-reductase from hyperplastic human prostates ([14C]-testosterone conversion, Dixon plot). The class given is biochemical. As to the method: A compound of the invention, 17β-(N,N-diisopropylcarboxamide)-estr-1,3,5(10)-triene-3-phosphinic acid, was tested for potency in inhibiting human steroid 5-α-reductase using tissue from hyperplastic human prostates. In determining potency in inhibiting the human enzyme, the following procedure was employed:
Frozen human prostates were thawed and minced into small pieces (5 mm^3). The tissue was homogenized in 3 to 5 volumes of 20 mM potassium phosphate buffer, pH 6.5, containing 0.33M sucrose, 1 mM dithiothreitol, and 50 μM NADPH with a Brinkmann Polytron (Sybron Corporation, Westbury, N.Y.). The solution was subjected to sonication for 3 to 5 minutes with a Sonifier (Branson Sonic Power Co.) followed by hand homogenization in a glass-to-glass Dounce homogenizer (Kontes Glass Company, Vineland, N.J.). […]
A constant amount of [^14 C]-testosterone (52 to 55 mCi/mmol, New England Nuclear, Boston, MA) in ethanol and varying amounts of the potential inhibitor in ethanol were deposited in test tubes and concentrated to dryness in a SAVANT Speed Vac. […] The radiochemical content in the bands of the substrate and the products was determined with a BIOSCAN Imaging Scanner (Bioscan, Inc., Washington, D.C.). The percent of recovered radiolabel converted to product was calculated, from which enzyme activity was determined. […]

For the next experiment, the target named is 5-α-Reductase. Conditions: cited from earlier work; for Ki / Reversibility of inhibition (with Ki): Table I; for Type of inhibition of steroid 5-α-reductase, in words: literature.
For experiment [2], the system named is human steroid 5-α-reductase. Conditions: substrate (testosterone), separate experiment.

The values that follow come from patent US4937237A, “Phosphinic acid substituted aromatic steroids as inhibitors of steroid 5-60 -reductase” (SmithKline Beckman Corporation, priority 1988, dated 1990).

Read-outs that look alike come from different tables or passages of the source.

One may read the Ki as the dissociation constant of the complex between target and ligand, obtained from inhibition or displacement. The term Km denotes the concentration of substrate that gives half-maximal velocity.

With `CC(C)N(C(=O)[C@H]1CC[C@H]2[C@@H]3CCc4cc([PH](=O)O)ccc4[C@H]3CC[C@]12C)C(C)C` [17β-(N,N-Diisopropylcarboxamide)-estr-1,3,5(10)-triene-3-phosphinic Acid], in experiment [1], the Ki amounted to 13 nM. In experiment [1] (concluded from low Ki), the “Potency as inhibitor of human steroid 5-α-reductase, in words” value was “potent inhibitor”.
On to `C[C@]12CC[C@H]3[C@@H](CCC4=CC(=O)CC[C@@]43C)[C@@H]1CC[C@@H]2C(=O)O` [(1)], for which, at 5-α-Reductase (literature references), the inhibitory constant (Ki) was 1100 nM and the “Reversibility of inhibition (with Ki)” value is given as “Reversible”.
As for `CC(=O)C1CCC2C3CC=C=CC(=O)CCC(=O)C3CCC12C` (stereo not drawn) [(2)], at 5-α-Reductase (literature references), the inhibition constant Ki is 1000 nM and the “Reversibility of inhibition (with Ki)” value is “Irreversible”.
Turning to `CC(CO)[C@H]1CC[C@H]2[C@@H]3CC[C@H]4C(=[N+]=[N-])C(=O)CC[C@]4(C)[C@H]3CC[C@]12C` (stereo partly drawn) [(3)], the Ki on 5-α-Reductase (literature reference, unit inferred) is 35 nM. The “Reversibility of inhibition (with Ki)” value on 5-α-Reductase (literature references) is reported as “Irreversible”. In addition, the “Type of inhibition of steroid 5-α-reductase, in words” value in the experiment with 5-α-Reductase is “potent, time-dependent inhibitor”.
In the case of `CCN(CC)C(=O)[C@H]1CC[C@H]2[C@@H]3CC[C@H]4N(C)C(=O)CC[C@]4(C)[C@H]3CC[C@]12C` [(4)], on 5-α-Reductase (literature references), the Ki was 5 nM and the “Reversibility of inhibition (with Ki)” value is on record as “Reversible”.
For `C=C1C[C@@H]2[C@H](CC[C@@]3(C)[C@H]2CC[C@]3(OC(C)=O)C(C)=O)[C@@]2(C)CCC(=O)C=C12` [(5)], on 5-α-Reductase (literature references), the Ki is 1250 nM and the “Reversibility of inhibition (with Ki)” value is listed as “Irreversible”. Also, the “Type of inhibition of steroid 5-α-reductase, in words” value with 5-α-Reductase is given as “time-dependent inactivator”.
Turning to `C[C@]12CC[C@H]3[C@@H](CCC4=CC(=O)CC[C@@]43C)[C@@H]1CC[C@@H]2O` [testosterone], in experiment [2], the Michaelis constant (Km) was found to be 4.5 µM.
